Laboratory results as given in US12390467B2, “Necroptosis inducers or autophagy inhibitors or a combination thereof” (The University of Toledo, priority 2018, dated 2025).
Read-outs that look alike come from different tables or passages of the source.

Tests used:
Assay type in all cases: cell-based
[1] = tested on: ZR-75-1 (non-TNBC cell line); assay: MTT cell viability assay, ZR-75-1; conditions: read-out: IC50 ± SD, ZR-75-1
Method: (§1) The following cancer and non-cancer cell lines were used in the initial cytotoxicity screening of the TPH104 compounds: triple negative breast cancer (TNBC): MDA-MB468, MDA-MB 231, and BT-20; non-TNBC: MCF-7 and ZR-75-1; ovarian: Ov2008; prostate: DU145; colon: HCT-116, S1, and LOVO; lung: H460; normal kidney: HEK-293; normal breast: HMEC; and normal colon: CRL-1459. All cells were cultured in Dulbecco's modified Eagle medium (DMEM), supplemented with 10% fetal bovine serum (FBS), and 1% penicillin/streptomycin (P/S). Cells were allowed to grow as adherent monolayers in T25 flasks in a humidified incubator with 5% CO2 at 37° C. for a period of 24 h, unless otherwise specified for certain experiments.
(§2) The MTT assay was used to determine the cytotoxicity of all of the compounds. Briefly, in a 96-well flat-bottom cell culture plate, the cells were seeded at a density between 3-5×10^3 cells/well (180 μl in each well) and incubated for 24 h (a hemocytometer was used for cell counting). The next day, the cells were incubated with different concentrations of the nine compounds (0, 0.1, 0.3, 1, 3, 10, 30, and 100 μM) for 72 h. After 72 h, 20 μl of 5 mg/ml of 3-(4,5-dimethylthiazol-2-yl)-2,5-diphenyltetrazolium bromide (MTT) was added to the plate and incubated with the cells for 3 h at 37° C. In this experiment, the living cells will reduce the soluble MTT dye to non-soluble purple formazan crystals. Following incubation, the media containing MTT removed via suction and 100 μL of 100% dimethyl sulfoxide (DMSO) was added to dissolve the formazan crystals. Subsequently, the plate was shaken for 2 minutes and the absorbance was measured at a wavelength of 570 nm using a SpectraMax iD3 Multi-Mode Microplate Reader (Molecular Devices, Sunnyvale, CA). The IC50 values of each compound were calculated and used to determine the selectivity ratio (IC50 in normal cells/IC50 in cancer cells) of each compound as previously described. Based on the results obtained from these experiments, the compound TPH104, which had the lowest IC50 value, was selected for further experiments.

BT-20 (TNBC cell line) = assay: MTT cell viability assay, BT-20
Method: as §1, §2

[2] = tested on: RAW264.7 macrophage cells; assay: Optically activated migration of RAW264.7 cells; conditions: 10 μM
Method: FIGS. 13A-13B: The in vitro effect of TPH104 on the migratory and invasive properties of MDA-MB231 TNBC cells using the wound healing assay. […] Control cells were incubated with 11-cis retinal (50 μM) for 5 minutes in the dark. A confined optical input of 445 nm was placed in-front of cells using a user-defined region of interest (ROI) and optically activated (OA) continuously in the direction of cell migration pathway for 20 minutes (OA=blue box). Cells were incubated with 10 μM of TPH104 for 30 minutes, followed by incubation with 11-cis retinal (50 μM) for 5 minutes in the dark. Scale=5 μm.
To further confirm the anti-migratory effect of TPH104, RAW264.7 macrophage cells were incubated with 10 μM TPH104 and its effect on Gai-coupled-GPCR activation was determined.

BT-20 cells = assay: Acridine orange assay; conditions: TPH104, 12 h, vs vehicle
Method: The cell-permeant, nucleic acid binding dye, acridine orange (AO) was used to assess the effect of TPH104 on the activation of lysosomes. A 10 μg/ml stock solution was prepared using PBS. The TNBC cells were seeded in a 6-well plate as described in the cell cycle assay. After overnight incubation, cells were incubated with TPH104 (1, 2, 5 μM), vehicle or 20 uM of chloroquine (CQ, […]) for 12 h. The media was removed via suction and 1 ml of AO, diluted in 1:1000 in PBS, was added to each well and the plate was incubated for an additional 30 minutes. Cells were washed three times in PBS to remove excess dye. The cells from each well were captured from randomly selected fields using a fluorescent microscope (EVOS-FLC cell imaging system, Thermofisher scientific) at 40× to determine the AO fluorescence intensity which is positively correlated to lysosomal activation.

**Q.** How did the IC50 ([1]; 72 h) turn out when `COc1ccc(O)c(/C=N/Nc2ncnc3scc(-c4ccc(C)cc4)c23)c1` [TPH104] was run?
**A.** The IC50 was 8.56 ± 1.95 µM.

**Q.** And the IC50 ([1]; Homo sapiens, ZR-75-1, 72 h)?
**A.** The IC50 was 8.6 µM.

**Q.** What about the “percent cell survival, TPH104 + rapamycin vs TPH104 only” value (BT-20 (TNBC cell line); + 100 nM rapamycin) of the same molecule?
**A.** The value was “significant increase”.

**Q.** What about the “percent BT-20 survival, TPH104 + 3-methyladenine” value (BT-20 (TNBC cell line); + 0.5 mM) of the same molecule?
**A.** Its value is “no significant change”.

**Q.** And the IC50 (BT-20 (TNBC cell line); Homo sapiens, BT-20, MTT, 72 h, TNBC)?
**A.** Its IC50 is 0.29 µM.

**Q.** What about the “migration of RAW264.7 cells” value [2] of the same molecule?
**A.** The value was “significantly decreased”.

**Q.** What about the “fluorescence intensity of the acridine orange (AO) dye” value (BT-20 cells) of the same molecule?
**A.** The value was “did not show a significant increase”.
